Assay results taken from US9029396B2, “Substituted indole derivatives” (Novartis AG, priority 2011, dated 2015).
≈ marks a conversion by molar mass, not a printed value.

What was measured:
[1] = biological target: T1, PKC-theta (Homo sapiens, UniProt Q04759); test: Protein kinase C theta assay (Caliper mobility shift); assay type: biochemical; conditions: full length human recombinant enzyme, 70 μM ATP; read-out: PKCθ (IC50 in nM)
T1 construct: Both enzymes were full length human recombinant protein expressed in insect cells; purchased Invitrogen AG, Basel, Switzerland; host or cells: insect cells
T1 sequence (Q04759 whole entry): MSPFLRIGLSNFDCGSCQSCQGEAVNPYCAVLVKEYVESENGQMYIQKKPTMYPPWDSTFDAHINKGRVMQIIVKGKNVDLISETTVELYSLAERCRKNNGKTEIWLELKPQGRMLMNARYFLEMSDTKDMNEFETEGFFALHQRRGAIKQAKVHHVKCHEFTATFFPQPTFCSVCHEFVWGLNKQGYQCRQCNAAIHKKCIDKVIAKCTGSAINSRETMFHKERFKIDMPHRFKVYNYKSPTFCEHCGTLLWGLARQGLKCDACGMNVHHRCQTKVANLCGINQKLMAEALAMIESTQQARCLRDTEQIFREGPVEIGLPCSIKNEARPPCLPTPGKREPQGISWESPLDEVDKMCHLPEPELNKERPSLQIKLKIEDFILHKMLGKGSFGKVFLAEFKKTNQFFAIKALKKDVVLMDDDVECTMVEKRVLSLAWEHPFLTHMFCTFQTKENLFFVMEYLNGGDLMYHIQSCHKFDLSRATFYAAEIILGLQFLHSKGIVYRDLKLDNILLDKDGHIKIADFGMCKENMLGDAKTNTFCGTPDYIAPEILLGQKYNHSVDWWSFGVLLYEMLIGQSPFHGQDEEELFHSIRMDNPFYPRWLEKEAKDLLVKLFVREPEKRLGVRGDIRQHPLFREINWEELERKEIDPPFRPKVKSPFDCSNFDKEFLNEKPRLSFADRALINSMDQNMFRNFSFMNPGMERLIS
Procedure: (§1) The compounds of the invention were tested for their activity on different PKC isotypes according to the following method. All assays were performed in 384 well microtiter plates. Each assay plate contained 8-point serial dilutions for 40 test compounds, as well as two 16-point serial dilutions of staurosporine as reference compound, plus 16 high- and 16 low controls. Liquid handling and incubation steps were done on a automated workstation equipped with a Innovadyne Nanodrop Express.
(§2) The assay plates were prepared by addition of 50 nL per well of compound solution in 90% DMSO. The kinase reactions were started by stepwise addition of 4.5 μl per well of a 2× peptide/ATP-solution and 4.5 μl per well of a 2× enzyme solution. The final concentration of reagents during kinase reaction were: 50 mM HEPES, pH 7.5, 1 mM DTT, 0.02% Tween20, 0.02% BSA, 0.6% DMSO, 10 mM beta-glycerophosphate, and 10 μM sodium orthovanadate. The peptide substrate used in the PKC-alpha and PKC-theta assays was Dy495-X5-ME-Mpr-RFARKGSLRQKNV-COOH. […]
(§3) Plates with terminated kinase reactions were transferred to the Caliper LC3000 workstations for reading. Phosphorylated and unphosphorylated peptides were separated using the Caliper microfluidic mobility shift technology and Kinase activities were calculated from the amounts of formed phospho-peptide.

[2] = Solubility in simulated gastric and intestinal fluids; assay type: physicochemical; conditions: Free Form
Source text: Solubility of compound Example No. 1 in simulated gastric and in simulated intestinal fluids at room temperature
Solubility of compound Example No. 3 (free form/acetate salt form) in simulated gastric fluids: […]

[3] = Dog pharmacokinetics after oral administration of compound of example No. 1; assay type: in vivo, Beagle dogs; conditions: dog, blood
Procedure: A single dose of the compound of example 1 (3.0 mg/kg) was administered p.o. to 3 male Beagle dogs. Compound 1 was dosed as an aqueous suspension of the crystalline monohydrate form in Methylcellulose (0.5%): Tween 80 (1%) (90:10). Blood was taken in regular intervals by venipuncture, and the samples were analyzed for a period of up to 24 hours. The compounds of the examples 1, 2, and 3 were quantitatively assessed over time, and the results are tabulated below:
Key pharmacokinetic parameters (mean values±standard deviations (n=3) for 1, 2 and 3 after oral dosing of example No. 1.

[4] = Stability in gastric and intestinal simulated fluids at 37° C.; assay type: physicochemical
Procedure: Stability Assessments Stability of Cpd. Example No. 1 in Gastric and Intestinal Simulated Fluids at 37° C.:
Stability of compound Example No. 3
(Free form/acetate salt form) in gastric and intestinal simulated fluids at 37° C.: […]

[5] = biological target: T2, PKC-alpha (Homo sapiens, UniProt P17252); test: Protein kinase C alpha assay (Caliper mobility shift); assay type: biochemical; conditions: full length human recombinant enzyme, 17 μM ATP; read-out: PKCα (IC50 in nM)
T2 construct: Both enzymes were full length human recombinant protein expressed in insect cells; purchased Invitrogen AG, Basel, Switzerland; host or cells: insect cells
Procedure: as §1, §2, §3

[6] = Dog pharmacokinetics after oral administration of compound of example No. 3 (mono acetate salt); assay type: in vivo, Beagle dogs; conditions: blood
Procedure: Compound of Example No. 3 was administered orally as the mono acetate salt in a hard gelatine capsule to 6 fasted male Beagle dogs. A nominal dose of 100 mg/dog was given, resulting in dose of 8.9-11.3 mg/kg (weight of the dogs ranging from 8.9-11.3 kg). Blood was taken by venipuncture, and sampling was performed up to 32 h. Bioanalytic determination was performed for 3 and is tabulated below:
Key pharmacokinetic parameters (mean values or range) for compound No. 3 after oral dosing as described above.

IC50 [1]: 0.2 nM
solubility ([2]; FaSSIF pH 6.5): 30 µg/mL (≈ 64.7 µM)
solubility ([2]; FeSSIF pH 5.8): 280 µg/mL (≈ 604 µM)
solubility ([2]; simulated gastric fluid, SGF pH 2): 120 µg/mL (≈ 259 µM)
concentration at 0.083 h ([3]; po, male Beagle dogs, example 1 3.0 mg/kg p.o. (crystalline monohydrate suspension), 0.083 h): 15 nM
concentration at 0.25 h ([3]; po, male Beagle dogs, example 1 3.0 mg/kg p.o., 0.25 h): 167 nM
concentration at 0.5 h ([3]; po, male Beagle dogs, example 1 3.0 mg/kg p.o., 0.5 h): 757 nM
concentration at 0.75 h ([3]; po, male Beagle dogs, example 1 3.0 mg/kg p.o., 0.75 h): 1200 nM
concentration at 1 h ([3]; po, male Beagle dogs, example 1 3.0 mg/kg p.o., 1 h): 1310 nM
concentration at 2 h ([3]; po, male Beagle dogs, example 1 3.0 mg/kg p.o., 2 h): 1120 nM
concentration at 3 h ([3]; po, male Beagle dogs, example 1 3.0 mg/kg p.o., 3 h): 959 nM
concentration at 4 h ([3]; po, male Beagle dogs, example 1 3.0 mg/kg p.o., 4 h): 762 nM
concentration at 7 h ([3]; po, male Beagle dogs, example 1 3.0 mg/kg p.o., 7 h): 403 nM
concentration at 24 h ([3]; po, male Beagle dogs, example 1 3.0 mg/kg p.o., 24 h): 67.9 nM
Tmax ([3]; male, Beagle, 3 mg/kg, mean ± SD (n=3), after oral dosing of example No. 1 to dogs): 54 ± 6 min
Amount in Area % of compound example No. 3 ([4]; Acetate Salt, FaSSIF pH 6.5, 37° C., 0 hours): 100 Area %
Amount in Area % of compound example No. 3 ([4]; Acetate Salt, FaSSIF pH 6.5, 37° C., 1 hours): 98.6 Area %
Amount in Area % of compound example No. 3 ([4]; Acetate Salt, FaSSIF pH 6.5, 37° C., 2.5 hours): 98.7 Area %
Amount in Area % of compound example No. 3 ([4]; Acetate Salt, FaSSIF pH 6.5, 37° C., 4 hours): 95.1 Area %
Amount in Area % of compound example No. 3 ([4]; Acetate Salt, FaSSIF pH 6.5, 37° C., 7 hours): 88.5 Area %
Amount in Area % of compound example No. 3 ([4]; Acetate Salt, FeSSIF pH 5.8, 37° C., 0 hours): 100 Area %
Amount in Area % of compound example No. 3 ([4]; Acetate Salt, FeSSIF pH 5.8, 37° C., 1 hours): 99.1 Area %
Amount in Area % of compound example No. 3 ([4]; Acetate Salt, FeSSIF pH 5.8, 37° C., 2.5 hours): 98.9 Area %
Amount in Area % of compound example No. 3 ([4]; Acetate Salt, FeSSIF pH 5.8, 37° C., 4 hours): 98 Area %
Amount in Area % of compound example No. 3 ([4]; Acetate Salt, FeSSIF pH 5.8, 37° C., 7 hours): 97.5 Area %
Amount in Area % of compound example No. 3 ([4]; Acetate Salt, SGF pH 2, 37° C., 0 hours): 100 Area %
Amount in Area % of compound example No. 3 ([4]; Acetate Salt, SGF pH 2, 37° C., 1 hours): 96.4 Area %
Amount in Area % of compound example No. 3 ([4]; Acetate Salt, SGF pH 2, 37° C., 2.5 hours): 93.2 Area %
Amount in Area % of compound example No. 3 ([4]; Acetate Salt, SGF pH 2, 37° C., 4 hours): 92.4 Area %
Amount in Area % of compound example No. 3 ([4]; Acetate Salt, SGF pH 2, 37° C., 7 hours): 90.0 Area %
Amount in Area % of compound example No. 3 ([4]; Free Form, FaSSIF pH 6.5, 37° C., 0 hours): 100 Area %
Amount in Area % of compound example No. 3 ([4]; Free Form, FaSSIF pH 6.5, 37° C., 1 hours): 100 Area %
Amount in Area % of compound example No. 3 ([4]; Free Form, FaSSIF pH 6.5, 37° C., 2.5 hours): 100 Area %
Amount in Area % of compound example No. 3 ([4]; Free Form, FaSSIF pH 6.5, 37° C., 4 hours): 90.7 Area %
Amount in Area % of compound example No. 3 ([4]; Free Form, FaSSIF pH 6.5, 37° C., 7 hours): 82.5 Area %
Amount in Area % of compound example No. 3 ([4]; Free Form, FeSSIF pH 5.8, 37° C., 0 hours): 100 Area %
Amount in Area % of compound example No. 3 ([4]; Free Form, FeSSIF pH 5.8, 37° C., 1 hours): 100 Area %
Amount in Area % of compound example No. 3 ([4]; Free Form, FeSSIF pH 5.8, 37° C., 2.5 hours): 100 Area %
Amount in Area % of compound example No. 3 ([4]; Free Form, FeSSIF pH 5.8, 37° C., 4 hours): 99.2 Area %
Amount in Area % of compound example No. 3 ([4]; Free Form, FeSSIF pH 5.8, 37° C., 7 hours): 98.7 Area %
Amount in Area % of compound example No. 3 ([4]; Free Form, SGF pH 2, 37° C., 0 hours): 98.8 Area %
Amount in Area % of compound example No. 3 ([4]; Free Form, SGF pH 2, 37° C., 1 hours): 98.6 Area %
Amount in Area % of compound example No. 3 ([4]; Free Form, SGF pH 2, 37° C., 2.5 hours): 98.1 Area %
Amount in Area % of compound example No. 3 ([4]; Free Form, SGF pH 2, 37° C., 4 hours): 97.9 Area %
Amount in Area % of compound example No. 3 ([4]; Free Form, SGF pH 2, 37° C., 7 hours): 97.9 Area %
IC50 [5]: 0.4 nM
concentration at 0.5 h ([6]; po, fasted male Beagle dogs, example No. 3 mono acetate salt p.o. 100 mg/dog, 0.5 h): 936 nM
concentration at 1 h ([6]; po, fasted male Beagle dogs, example No. 3 mono acetate salt p.o. 100 mg/dog, 1 h): 2160 nM
concentration at 2 h ([6]; po, fasted male Beagle dogs, example No. 3 mono acetate salt p.o. 100 mg/dog, 2 h): 2550 nM
concentration at 3 h ([6]; po, fasted male Beagle dogs, example No. 3 mono acetate salt p.o. 100 mg/dog, 3 h): 2000 nM
concentration at 4 h ([6]; po, fasted male Beagle dogs, example No. 3 mono acetate salt p.o. 100 mg/dog, 4 h): 1900 nM
concentration at 6 h ([6]; po, fasted male Beagle dogs, example No. 3 mono acetate salt p.o. 100 mg/dog, 6 h): 1490 nM
concentration at 8 h ([6]; po, fasted male Beagle dogs, example No. 3 mono acetate salt p.o. 100 mg/dog, 8 h): 1240 nM
concentration at 24 h ([6]; po, fasted male Beagle dogs, example No. 3 mono acetate salt p.o. 100 mg/dog, 24 h): 276 nM
concentration at 32 h ([6]; po, fasted male Beagle dogs, example No. 3 mono acetate salt p.o. 100 mg/dog, 32 h): 116 nM
concentration at 0.25 h ([6]; po, fasted male Beagle dogs, example No. 3 mono acetate salt, capsule p.o. 100 mg/dog, 0.25 h): 177 nM
Tmax ([6]; male, Beagle, dog, 100 mg, range, after oral dosing of example No. 3 mono acetate salt to dogs): 30 to 120 min
Structure (SMILES): Cc1cccc2c(C3=C(c4nc(N5CCNC6(CC6)C5)cc5ccccc45)C(=O)NC3=O)c[nH]c12 [Example 3, 3-[3-(4,7-diaza-spiro[2.5]oct-7-yl)-isoquinolin-1-yl]-4-(7-methyl-1H-indol-3-yl)-pyrrole-2,5-dione]
